ChEMBL document CHEMBL5550148, “Systematic alanine and stapling mutational analysis of antimicrobial peptide Chem-KVL” (Bioorg Med Chem Lett, 2024)
Values after ≈ are worked out from the molar mass of the structure shown. Bridge positions count the residues as written; N and C are the ends. Square brackets hold non-standard residues; d marks the D form. Peptide text beside a SMILES is read from it. S5 = C=CCCC[C@](C)(N)C(=O)O

Key:
Acinetobacter baumannii = assay: Antibacterial activity against Acinetobacter baumannii ATCC 17978 assessed as inhibition of bacterial growth; assay type: functional
Staphylococcus aureus [1] = assay: Antibacterial activity against Staphylococcus aureus ATCC 25923 assessed as inhibition of bacterial growth; assay type: functional
Klebsiella pneumoniae = assay: Antibacterial activity against Klebsiella pneumoniae ATCC 13883 assessed as inhibition of bacterial growth; assay type: functional
Pseudomonas aeruginosa [2] = assay: Antibacterial activity against Pseudomonas aeruginosa ATCC 27853 assessed as inhibition of bacterial growth; assay type: functional
Escherichia coli [3] = assay: Antibacterial activity against Escherichia coli ATCC 25922 assessed as inhibition of bacterial growth; assay type: functional
Salmonella typhimurium = assay: Antibacterial activity against Salmonella typhimurium clinical isolate assessed as inhibition of bacterial growth; assay type: functional, Salmonella enterica subsp. enterica serovar Typhimurium; conditions: Salmonella enterica
[4] = Retention time of compound by HPLC analysis; assay type: physicochemical
chymotrypsin = chymotrypsin (Homo sapiens, UniProt P17538+P40313+Q6GPI1+Q99895); assay: Proteolytic stability of compound assessed as chymotrypsin (unknown origin) mediated drug degradation measured within 4 hrs by HPLC analysis; assay type: ADME, protein assay; conditions: read-out: Drug degradation
[5] = Cytotoxicity against mouse RAW264.7 cells; assay type: toxicity, cell-based
Staphylococcus aureus [6] = assay: Potency index, ratio of Chem-KVL MIC to test compound MIC for antibacterial activity against Staphylococcus aureus ATCC 25923; assay type: functional
Pseudomonas aeruginosa [7] = assay: Potency index, ratio of Chem-KVL MIC to test compound MIC for antibacterial activity against Pseudomonas aeruginosa ATCC 27853; assay type: functional
Escherichia coli [8] = assay: Potency index, ratio of Chem-KVL MIC to test compound MIC for antibacterial activity against Escherichia coli ATCC 25922; assay type: functional

Molecule | MIC (Acinetobacter baumannii) [µg/mL] | MIC (Staphylococcus aureus [1]) [µg/mL] | MIC (Klebsiella pneumoniae) [µg/mL] | MIC (Pseudomonas aeruginosa [2]) [µg/mL] | MIC (Escherichia coli [3]) [µg/mL] | MIC (Salmonella typhimurium) [µg/mL] | Time [4] [min] | metabolised at 4 h (chymotrypsin) [%] | IC50 [5] [µg/mL] | Ratio (Staphylococcus aureus [6]) | Ratio (Pseudomonas aeruginosa [7]) | Ratio (Escherichia coli [8])
CC(=O)N[C@@H](CCCCN)C(=O)N[C@H](C(=O)N[C@@H](CC(C)C)C(=O)NCC(=O)N[C@@H](CCCNC(=N)N)C(=O)N[C@@H](CC(C)C)C(=O)N[C@H](C(=O)N[C@@H](CCCCN)C(=O)N[C@H](C(=O)N[C@@]1(C)CCC/C=C\CCC[C@@](C)(C(N)=O)NC(=O)[C@H](CC(C)C)NC(=O)[C@H](CCCNC(=N)N)NC(=O)CNC1=O)C(C)C)C(C)C)C(C)C (Ac-KVLGRLVKV[S5]GRL[S5]-NH2; staple (Z) 10-14) | 32 (≈ 19.6 µM) | 4 (≈ 2.46 µM) | 64 (≈ 39.3 µM) | 8 (≈ 4.91 µM) | 32 (≈ 19.6 µM) | 64 (≈ 39.3 µM) | 28.3 |  |  |  |  | 
CC(=O)N[C@@H](CCCCN)C(=O)N[C@H](C(=O)N[C@@H](CC(C)C)C(=O)NCC(=O)N[C@@H](CCCNC(=N)N)C(=O)N[C@@H](CC(C)C)C(=O)N[C@H](C(=O)N[C@@H](CCCCN)C(=O)N[C@@]1(C)CCC/C=C\CCC[C@@](C)(C(=O)N[C@H](C(N)=O)C(C)C)NC(=O)[C@H](CCCNC(=N)N)NC(=O)CNC(=O)[C@H](CC(C)C)NC1=O)C(C)C)C(C)C (Ac-KVLGRLVK[S5]LGR[S5]V-NH2; staple (Z) 9-13) | 32 (≈ 19.6 µM) | 8 (≈ 4.91 µM) | 64 (≈ 39.3 µM) | 4 (≈ 2.46 µM) | 32 (≈ 19.6 µM) | 64 (≈ 39.3 µM) | 27.9 |  |  |  |  | 
CC(=O)N[C@@H](CCCCN)C(=O)N[C@H](C(=O)N[C@@H](CC(C)C)C(=O)NCC(=O)N[C@@H](CCCNC(=N)N)C(=O)N[C@@H](CC(C)C)C(=O)N[C@@]1(C)CCC/C=C\CCC[C@@](C)(C(=O)N[C@@H](CCCNC(=N)N)C(=O)N[C@@H](CC(C)C)C(=O)N[C@H](C(N)=O)C(C)C)NC(=O)[C@H](CC(C)C)NC(=O)[C@H](C(C)C)NC(=O)[C@H](CCCCN)NC1=O)C(C)C (Ac-KVLGRL[S5]KVL[S5]RLV-NH2; staple (Z) 7-11) | > 64 | 16 (≈ 9.49 µM) | > 64 | 32 (≈ 19 µM) | > 64 | > 64 | 30.6 |  |  |  |  | 
CC(=O)N[C@@H](CCCCN)C(=O)N[C@H](C(=O)N[C@@H](CC(C)C)C(=O)NCC(=O)N[C@@]1(C)CCC/C=C\CCC[C@@](C)(C(=O)N[C@@H](CC(C)C)C(=O)NCC(=O)N[C@@H](CCCNC(=N)N)C(=O)N[C@@H](CC(C)C)C(=O)N[C@H](C(=O)O)C(C)C)NC(=O)[C@H](CCCCN)NC(=O)[C@H](C(C)C)NC(=O)[C@H](CC(C)C)NC1=O)C(C)C (Ac-KVLG[S5]LVK[S5]LGRLV-OH; staple (Z) 5-9) | 64 (≈ 40.3 µM) | 4 (≈ 2.52 µM) | > 64 | 4 (≈ 2.52 µM) | 64 (≈ 40.3 µM) | > 64 | 30.8 |  |  |  |  | 
CC(=O)N[C@@H](CCCCN)C(=O)N[C@H](C(=O)N[C@@]1(C)CCC/C=C\CCC[C@@](C)(C(=O)N[C@@H](CCCCN)C(=O)N[C@H](C(=O)N[C@@H](CC(C)C)C(=O)NCC(=O)N[C@@H](CCCNC(=N)N)C(=O)N[C@@H](CC(C)C)C(=O)N[C@H](C(N)=O)C(C)C)C(C)C)NC(=O)[C@H](CC(C)C)NC(=O)[C@H](CCCNC(=N)N)NC(=O)CNC1=O)C(C)C (Ac-KV[S5]GRL[S5]KVLGRLV-NH2; staple (Z) 3-7) | 64 (≈ 39.3 µM) | 4 (≈ 2.46 µM) | > 64 | 16 (≈ 9.82 µM) | 64 (≈ 39.3 µM) | > 64 | 27.1 |  |  |  |  | 
CC(=O)N[C@@H](CCCCN)C(=O)N[C@@]1(C)CCC/C=C\CCC[C@@](C)(C(=O)N[C@H](C(=O)N[C@@H](CCCCN)C(=O)N[C@H](C(=O)N[C@@H](CC(C)C)C(=O)NCC(=O)N[C@@H](CCCNC(=N)N)C(=O)N[C@@H](CC(C)C)C(=O)N[C@H](C(N)=O)C(C)C)C(C)C)C(C)C)NC(=O)[C@H](CCCNC(=N)N)NC(=O)CNC(=O)[C@H](CC(C)C)NC1=O (Ac-K[S5]LGR[S5]VKVLGRLV-NH2; staple (Z) 2-6) | 16 (≈ 9.82 µM) | 8 (≈ 4.91 µM) | 32 (≈ 19.6 µM) | 4 (≈ 2.46 µM) | 16 (≈ 9.82 µM) | 32 (≈ 19.6 µM) | 27.3 | 100 | 4.11 (≈ 2.52 µM) |  |  | 
Ac-AVLGRLVKVLGRLV-NH2 | > 64 | 16 | > 64 | 64 | > 64 | > 64 | 27.8 |  |  |  |  | 
Ac-KALGRLVKVLGRLV-NH2 | 16 | 32 | 32 | 64 | 8 | 16 | 24.4 |  |  |  |  | 
Ac-KVAGRLVKVLGRLV-NH2 | > 64 | > 64 | > 64 | > 64 | 64 | 64 | 22.4 |  |  |  |  | 
Ac-KVLARLVKVLGRLV-NH2 | 32 | 4 | 64 | 32 | 32 | 64 | 26.8 |  |  |  |  | 
Ac-KVLGALVKVLGRLV-NH2 | 32 | 8 | 32 | 16 | 32 | 64 | 28.4 |  |  |  |  | 
Ac-KVLGRAVKVLGRLV-NH2 | > 64 | > 64 | > 64 | > 64 | > 64 | 64 | 22.3 |  |  |  |  | 
Ac-KVLGRLAKVLGRLV-NH2 | 32 | 32 | 64 | 64 | 8 | 16 | 24.5 |  |  |  |  | 
Ac-KVLGRLVAVLGRLV-NH2 | > 64 | 16 | 64 | 64 | 64 | > 64 | 27.4 |  |  |  |  | 
Ac-KVLGRLVKALGRLV-NH2 | > 64 | > 64 | > 64 | > 64 | > 64 | 64 | 25.2 |  |  |  |  | 
Ac-KVLGRLVKVAGRLV-NH2 | > 64 | > 64 | > 64 | > 64 | > 64 | 64 | 22 |  |  |  |  | 
Ac-KVLGRLVKVLARLV-NH2 | 16 | 8 | 16 | 8 | 16 | 32 | 27.4 |  |  | 2 | 2 | 2
Ac-KVLGRLVKVLGALV-NH2 | > 64 | 32 | > 64 | 16 | > 64 | > 64 | 27 |  |  |  |  | 
Ac-KVLGRLVKVLGRAV-NH2 | 64 | > 64 | > 64 | > 64 | > 64 | 32 | 22.7 |  |  |  |  | 
Ac-KVLGRLVKVLGRLA-NH2 | 32 | 64 | 64 | > 64 | 16 | 32 | 24.2 |  |  |  |  | 
Ac-KVLGRLVKVLGRLV-NH2 | 16 | 16 | 16 | 32 | 32 | 32 | 25.1 | 100 | 3.7 |  |  | 
